How the values were obtained:
Format in all cases: in vitro ADME
CYP3A4 = test: CYP mRNA induction, cultured human hepatocytes from 3 donors; settings: for Highest induction of CYP3A4 by an individual donor / Induction of CYP3A4 mRNA, mean±SD relative to control: 20 μM; for Inducer classification, CYP3A4: clinically relevant concentrations; for In vitro induction parameter Emax, CYP3A4 / EC50: mRNA, human hepatocytes; for EC50: read-out: In vitro induction parameter EC50, CYP3A4; for Calculated R3 Value, CYP3A4: predicted @ 600 mg BID
Experimental: (§1) “mM^”=millimolar. CYP induction was evaluated using cultured human hepatocytes (from 3 donors) treated once daily for 3 days with RE/R concentrations to […].
(§2) CYP induction was evaluated in vitro using cultured human hepatocytes from 3 donors. Rodatristat ethyl and rodatristat caused negligible induction of CYP1A2 (<2% control for the most sensitive responder), CYP2B6 (mean±SD values relative to control of 16.2±20.0% and 15.0±17.9%, respectively), and CYP3A4 (7.1±6.41% and 10.3±11.9%, respectively) mRNA at 20 μM (the highest concentration studied). […] The highest values for induction of CYP2B6 by an individual donor at all concentrations tested were 60.1% and 57.4% at 10 μM for rodatristat ethyl and rodatristat, respectively, and for CYP3A4 were 13.3% and 23.0% at 20 μM, respectively.
(§3) The induction of specific CYP isoforms (CYP1A2, CYP2B6, CYP3A4) was investigated for RVT-1201 and KAR5417 in human hepatocytes (HH) (XT153040). […] CYP2B6 and CYP3A4 mRNA induction by RVT-1201 and KAR5417 (Emax and EC50) were used to estimate the PBPK model parameters Indmax and IndC50. Within the PBPK model, IndC50 is equal to EC50, the concentration of inducer that supports half maximal induction of the CYP isoform (estimated by a sigmoid three parameter fit to in vitro concentration-dependent mRNA induction data). Within the PBPK model, Indmax represents the maximum fold induction relative to incubation with vehicle only (vehicle=1). The reported Emax for RVT-1201 and KAR5417 was estimated by sigmoid three parameter fit to in vitro concentration-dependent mRNA induction data. Baseline activity was set equal to zero, rather than one, therefore reported Emax was increased by adding one to each value to estimate Indmax. CYP2B6 induction data was used in the PBPK model as reported. CYP3A4 induction data was scaled based on the maximum induction by rifampin (at 20 μM). Scaling of CYP3A4 induction using rifampin data from the same system leverages the extensive literature on rifampin induction in vitro and in vivo and allows adjustment of in vitro induction data based on the relative performance of rifampin in each in vitro incubation, and the empirical relationship between rifampin induction of CYP3A4 in vitro and in vivo.

CYP2B6 = test: as above; settings: for Highest induction of CYP2B6 by an individual donor: 10 μM; for Induction of CYP2B6 mRNA, mean±SD relative to control: 20 μM; for Inducer classification, CYP2B6: clinically relevant concentrations; for In vitro induction parameter Emax, CYP2B6 / EC50: mRNA, human hepatocytes; for EC50: read-out: In vitro induction parameter EC50, CYP2B6; for Calculated R3 Value, CYP2B6: predicted @ 600 mg BID
Experimental: as §1, §2, §3

CYP1A2 [1] = test: as above; settings: clinically relevant concentrations
Experimental: as §1, §2, §3

CYP2C19 = CYP2C19 (Homo sapiens, UniProt P33261); test: Direct and time-dependent CYP inhibition, pooled human liver microsomes; parameters: from tissue; host or cells: pooled human liver microsomes (n=200 donors)
Chain of CYP2C19 (P33261 whole entry): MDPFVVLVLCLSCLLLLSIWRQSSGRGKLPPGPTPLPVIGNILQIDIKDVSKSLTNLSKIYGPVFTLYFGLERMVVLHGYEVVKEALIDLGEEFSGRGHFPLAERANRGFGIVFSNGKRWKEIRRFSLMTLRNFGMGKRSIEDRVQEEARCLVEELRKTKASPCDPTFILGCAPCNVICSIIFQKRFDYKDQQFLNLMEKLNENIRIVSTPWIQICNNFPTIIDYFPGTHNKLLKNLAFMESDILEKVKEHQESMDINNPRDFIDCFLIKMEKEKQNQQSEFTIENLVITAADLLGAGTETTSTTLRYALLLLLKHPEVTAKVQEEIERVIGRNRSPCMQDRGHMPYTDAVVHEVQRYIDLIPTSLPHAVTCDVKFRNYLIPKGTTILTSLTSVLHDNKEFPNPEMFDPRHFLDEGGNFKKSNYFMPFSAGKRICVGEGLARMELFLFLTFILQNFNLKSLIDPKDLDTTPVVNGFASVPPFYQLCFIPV
Experimental: as §1
(§4) The competitive inhibition of specific CYP isoforms was investigated for RVT-1201 and KAR5417 in human liver microsomes (HLM) (XT155056). Of the […] evaluated in vitro (CYP1A2, CYP2B6, CYP2C8, CYP2C9, CYP2D6, CYP3A4, CYP3A5), RVT-1201 IC50 estimates were determined for CYP2B6, CYP2C8 and CYP3A4 only. […] For each IC50 estimate, substrate concentration and Km were used to estimate RVT-1201 and KAR5417 Ki.

CYP1A2 [2] = target: T1, CYP1A2 (Homo sapiens, UniProt P05177); test: as above; parameters: from tissue; host or cells: pooled human liver microsomes (n=200 donors)
T1 sequence (P05177 1-516): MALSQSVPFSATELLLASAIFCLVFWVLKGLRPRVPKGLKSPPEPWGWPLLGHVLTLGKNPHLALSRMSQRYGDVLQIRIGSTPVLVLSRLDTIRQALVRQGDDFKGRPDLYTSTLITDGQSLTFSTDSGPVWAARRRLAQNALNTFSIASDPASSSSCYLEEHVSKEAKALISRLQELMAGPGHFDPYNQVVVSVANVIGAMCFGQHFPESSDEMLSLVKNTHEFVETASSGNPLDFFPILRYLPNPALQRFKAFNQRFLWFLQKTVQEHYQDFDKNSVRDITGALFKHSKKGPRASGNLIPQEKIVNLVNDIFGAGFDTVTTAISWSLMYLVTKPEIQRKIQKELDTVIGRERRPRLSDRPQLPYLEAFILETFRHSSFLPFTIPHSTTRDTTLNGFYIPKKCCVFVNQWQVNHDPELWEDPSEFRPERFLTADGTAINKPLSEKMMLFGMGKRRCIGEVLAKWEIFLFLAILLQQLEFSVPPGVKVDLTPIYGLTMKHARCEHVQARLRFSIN
Experimental: as §1, §4

CYP2C8 = target: T2, CYP2C8 (Homo sapiens, UniProt P10632); test: as above; parameters: from tissue; host or cells: pooled human liver microsomes (n=200 donors); settings: for IC50: human liver microsomes, read-out: In vitro IC50, direct inhibition, CYP2C8; for Calculated R1 Value, CYP2C8: predicted @ 600 mg BID, R1=1+(Imax,unbound/Ki)
T2 sequence (P10632 1-490): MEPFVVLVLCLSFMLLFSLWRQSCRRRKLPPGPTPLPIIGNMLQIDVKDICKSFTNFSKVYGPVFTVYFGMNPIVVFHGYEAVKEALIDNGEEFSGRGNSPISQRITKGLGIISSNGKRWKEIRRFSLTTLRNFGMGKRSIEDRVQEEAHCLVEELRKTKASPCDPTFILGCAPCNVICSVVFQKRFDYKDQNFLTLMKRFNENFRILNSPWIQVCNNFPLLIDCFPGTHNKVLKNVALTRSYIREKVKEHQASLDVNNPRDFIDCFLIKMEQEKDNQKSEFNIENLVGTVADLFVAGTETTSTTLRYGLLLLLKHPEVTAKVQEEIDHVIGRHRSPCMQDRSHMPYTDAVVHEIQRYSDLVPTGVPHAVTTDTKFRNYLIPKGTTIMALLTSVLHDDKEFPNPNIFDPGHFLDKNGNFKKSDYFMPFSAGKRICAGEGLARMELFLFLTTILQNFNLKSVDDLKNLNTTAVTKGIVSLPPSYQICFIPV
Experimental: as §1, §4

Structure (SMILES)	Highest induction of CYP3A4 by an individual donor (CYP3A4)	Induction of CYP3A4 mRNA, mean±SD relative to control (CYP3A4)	Inducer classification, CYP3A4 (CYP3A4)	In vitro induction parameter Emax, CYP3A4 (CYP3A4)	EC50 (CYP3A4)	Calculated R3 Value, CYP3A4 (CYP3A4)	Highest induction of CYP2B6 by an individual donor (CYP2B6)	Induction of CYP2B6 mRNA, mean±SD relative to control (CYP2B6)	Inducer classification, CYP2B6 (CYP2B6)	In vitro induction parameter Emax, CYP2B6 (CYP2B6)	EC50 (CYP2B6)	Calculated R3 Value, CYP2B6 (CYP2B6)	Inducer classification, CYP1A2 (CYP1A2 [1])	IC50 (CYP2C8)	Calculated R1 Value, CYP2C8 (CYP2C8)	also measured
CCOC(=O)[C@@H]1CC2(CCN(c3cc(O[C@H](c4ccc(Cl)cc4-c4ccccc4)C(F)(F)F)nc(N)n3)CC2)CN1 [Rodatristat ethyl, (S)-ethyl 8-(2-amino-6-((R)-1-(5-chloro-[1,1′-biphenyl]-2-yl)-2,2,2-trifluoroethoxy)pyrimidin-4-yl)-2,8-diazaspiro[4.5]decane-3-carboxylate]	13.3%	7.1±6.41%	potential weak inducers	4.53	15.6 µM	0.925	60.1%	16.2±20.0%	potentially weak to moderate inducers	3.1	6.16 µM	0.960	not considered inducers	2.8 µM	<1.02	Calculated R3 Value, CYP3A4 (CYP3A4; listed as rodatristat ethyl): 0.478; IC50 (CYP2C19; human liver microsomes, read-out: In vitro IC50, direct inhibition, CYP2C19): > 30 µM; IC50 (CYP1A2 [2]; human liver microsomes, read-out: In vitro IC50, direct inhibition, CYP1A2): > 30 µM
Nc1nc(O[C@H](c2ccc(Cl)cc2-c2ccccc2)C(F)(F)F)cc(N2CCC3(CC2)CN[C@H](C(=O)O)C3)n1 [Rodatristat, (S)-8-(2-amino-6-((R)-1-(5-chloro-[1,1′-biphenyl]-2-yl)-2,2,2-trifluoroeth-oxy)pyrimidin-4-yl)-2,8-diazaspiro[4.5]decane-3-carboxylic acid]	23.0%	10.3±11.9%	potential weak inducers	4.5	26.7 µM	0.476	57.4%	15.0±17.9%	potentially weak to moderate inducers	2.95	5.6 µM	0.766	not considered inducers	2.8 µM	<1.02	Direct inhibition of CYP2C19 (in words) (CYP2C19): did not inhibit; Direct inhibition of CYP1A2 (in words) (CYP1A2 [2]): did not inhibit; Ki (CYP2C8; equivalent to IC50/2): 1.4 µM; Calculated R1 Value, CYP2C8 (CYP2C8; listed as rodatristat): <1.02
